Experimental data taken from ChEMBL document CHEMBL4483862, “Open-source discovery of chemical leads for next-generation chemoprotective antimalarials” (2018).

System: Plasmodium berghei
Assay: Luciferase/luciferin-expressing antifolate-resistant parasites were used to infect a culture of HepG2 cells that were pre-incubated with compounds. Infected hepatocytes emit light due to the luciferase reaction. Assay results are presented as the percent inhibition of light emission compared to control. […]
Format: functional
Settings: sporozoite; for IC90: read-out: LUCIFERASE INFECTION ASSAY - IC90
[1] = read-out: LUCIFERASE INFECTION ASSAY - IC50

Compound	IC90	other results
CC(C)N1CCN(c2ccc(-c3cn4c(-c5cccc(O)c5)cnc4cn3)cc2)CC1	> 7.98 µM	IC50 (PBLUC_HILL_SLOPE 3.65, PBLUC_R_SQUARED 0.123, read-out: LUCIFERASE INFECTION ASSAY - IC50): > 7.98 µM
Cc1ccc(S(=O)(=O)N2c3ccc(S(N)(=O)=O)cc3CC2C)cc1 (stereo not drawn)	> 9.01 µM	IC50 (PBLUC_HILL_SLOPE 2.71, PBLUC_R_SQUARED 0.472, read-out: LUCIFERASE INFECTION ASSAY - IC50): 4.01 µM
Cc1ccsc1CN(C)Cc1nnc(C(=O)Nc2ccc(Cl)cc2)s1	> 10 µM	IC50 [1]: > 10 µM
CC(C)(C)c1ccc(/C=C2\CCc3c2nc2ccccc2c3C(=O)OCC#N)cc1	> 10 µM	IC50 [1]: > 10 µM
CCCCNC(=O)c1c(NC(=O)c2ccccc2)nc2ccccn12	7.86 µM	IC50 (FFLUC_HILL_SLOPE 2.02, FFLUC_R_SQUARED 0.16, HEPG2TOX_HILL_SLOPE 0.796, HEPG2TOX_R_SQUARED 0.541, PBLUC_HILL_SLOPE 4.74, PBLUC_R_SQUARED 0.419, read-out: LUCIFERASE INFECTION ASSAY - IC50): 4.95 µM
C/C=C/C=C/C(=O)Nc1ccc(Nc2ccccc2)cc1	5.63 µM	IC50 (HEPG2TOX_HILL_SLOPE 12.3, HEPG2TOX_R_SQUARED 0.699, PBLUC_HILL_SLOPE 454, 10.1, PBLUC_R_SQUARED 0.588, 0.566, read-out: LUCIFERASE INFECTION ASSAY - IC50): 5.17 µM
CN1N=C2c3ccccc3CCCC2C1c1ccc(C(C)(C)C)cc1 (stereo not drawn)	3.51 µM	IC50 (PBLUC_HILL_SLOPE 38, PBLUC_R_SQUARED 0.372, read-out: LUCIFERASE INFECTION ASSAY - IC50): 3.31 µM
O=S(=O)(c1ccccc1)c1nc(Nc2ccc(F)cc2F)sc1Cl	> 10 µM	IC50 (HEPG2TOX_HILL_SLOPE 0.283, HEPG2TOX_R_SQUARED 0.886, PBLUC_HILL_SLOPE 3.77, PBLUC_R_SQUARED 0.219, read-out: LUCIFERASE INFECTION ASSAY - IC50): 7.29 µM
CCN(Cc1ccc2c(c1)OCO2)C(=O)c1oc2c(F)cccc2c1C	> 10 µM	IC50 (FFLUC_HILL_SLOPE 1.31, FFLUC_R_SQUARED 0.0559, read-out: LUCIFERASE INFECTION ASSAY - IC50): > 10 µM
COc1ccc(-c2nc(C(=O)N3c4ccccc4CC3C)cs2)cc1OC (stereo not drawn)	> 10 µM	IC50 (HEPG2TOX_HILL_SLOPE 1.77, HEPG2TOX_R_SQUARED 0.837, PBLUC_HILL_SLOPE 1.16, PBLUC_R_SQUARED 0.492, read-out: LUCIFERASE INFECTION ASSAY - IC50): 1.9 µM
OC(c1ccccc1)c1cccs1 (stereo not drawn)	> 17.3 µM	IC50 [1]: > 17.3 µM
CC(C)(C)c1ccc(C(=O)Nc2cccc(F)c2C#N)cc1	> 11.1 µM	IC50 (PBLUC_HILL_SLOPE 11.7, PBLUC_R_SQUARED 0.257, read-out: LUCIFERASE INFECTION ASSAY - IC50): 9.4 µM
C[C@H]1O[C@@H](O[C@H]2[C@@H](O)C[C@H](O[C@H]3[C@@H](O)C[C@H](O[C@H]4CC[C@]5(C)C6CC[C@]7(C)[C@@H](C8=CC(=O)OC8)CC[C@]7(O)C6CC[C@@H]5C4)O[C@@H]3C)O[C@@H]2C)C[C@H](O)[C@H]1O (stereo partly drawn)	3.31 µM	IC50 (HEPG2TOX_HILL_SLOPE 2.7, HEPG2TOX_R_SQUARED 0.866, PBLUC_HILL_SLOPE 1.79, PBLUC_R_SQUARED 0.476, read-out: LUCIFERASE INFECTION ASSAY - IC50): 0.969 µM
Cc1cc(/C=C(\C#N)c2nc3ccccc3[nH]2)c(C)n1-c1cc(C(F)(F)F)ccc1Cl	5.02 µM	IC50 (HEPG2TOX_HILL_SLOPE 9.28, HEPG2TOX_R_SQUARED 0.884, PBLUC_HILL_SLOPE 1.82, PBLUC_R_SQUARED 0.761, read-out: LUCIFERASE INFECTION ASSAY - IC50): 1.5 µM
C=Cc1c(S(C)(=O)=O)sc(C(N)=O)c1C	> 13.5 µM	IC50 [1]: > 13.5 µM
CC(NC(=O)c1cccc(Nc2ncccn2)c1)c1cccc(C(F)(F)F)c1 (stereo not drawn)	6.34 µM	IC50 [1]: 0.729 µM
CCc1nc(COC(=O)c2c(C)nsc2NC)cs1	5.52 µM	IC50 [1]: 1.53 µM
CCCNC(=O)c1c(NC(=O)c2ccc(F)cc2)nc2ccccn12	5.82 µM	IC50 (HEPG2TOX_HILL_SLOPE 16.9, HEPG2TOX_R_SQUARED 0.391, PBLUC_HILL_SLOPE 4.88, PBLUC_R_SQUARED 0.525, read-out: LUCIFERASE INFECTION ASSAY - IC50): 3.71 µM
CC(C)CC(N)c1csc(NC(=O)c2ccc(F)c(Cl)c2)n1 (stereo not drawn)	> 9.65 µM	IC50 [1]: 8.74 µM
CC(C)CC(NC(=O)c1ccc(C#N)cc1)c1ccccc1 (stereo not drawn)	9.52 µM	IC50 (PBLUC_HILL_SLOPE 10.9, 7.64, PBLUC_R_SQUARED 0.439, 0.355, read-out: LUCIFERASE INFECTION ASSAY - IC50): 8.11 µM
Cc1c(Cl)cccc1/N=C1\SCCN1C(=O)C(c1ccccc1)c1ccccc1	> 10 µM	IC50 (HEPG2TOX_HILL_SLOPE 4.09, HEPG2TOX_R_SQUARED 0.235, read-out: LUCIFERASE INFECTION ASSAY - IC50): > 10 µM

Compound	IC90	other results
CCCCCc1ccc(-c2nnc(Sc3ccc(C(F)(F)F)cc3[N+](=O)[O-])[nH]2)cc1	> 7.56 µM	IC50 (PBLUC_HILL_SLOPE 9.1, PBLUC_R_SQUARED 0.598, read-out: LUCIFERASE INFECTION ASSAY - IC50): 6.15 µM
COc1ccc(OC)c(CSc2nnc(Nc3cccc(F)c3)s2)c1	> 10 µM	IC50 [1]: > 10 µM
Cc1ccc(-n2nc(C)c(/C=C3\SC(=S)N(c4ccc(C(=O)O)cc4)C3=O)c2Cl)c(C)c1	> 10 µM	IC50 [1]: 9.42 µM
NC(=O)NC(=O)C(Nc1ccc(Oc2ccccc2)cc1)c1ccccc1 (stereo not drawn)	> 10 µM	IC50 [1]: > 10 µM
CCc1nnc(NC(=O)/C=C/c2cc(Cl)c(OC(C)C)c(OC)c2)s1	> 10 µM	IC50 (HEPG2TOX_HILL_SLOPE 1.31, HEPG2TOX_R_SQUARED 0.955, PBLUC_HILL_SLOPE 2.51, PBLUC_R_SQUARED 0.0872, read-out: LUCIFERASE INFECTION ASSAY - IC50): 6.82 µM
COC(=O)c1ccc(-n2c(C)cc(-c3csc(NC(=O)/C=C/c4ccccc4[N+](=O)[O-])n3)c2C)cc1	> 10 µM	IC50 (FFLUC_HILL_SLOPE 15.6, FFLUC_R_SQUARED 0.621, read-out: LUCIFERASE INFECTION ASSAY - IC50): > 10 µM
Cc1cccc(/C=C(/C(=O)NCc2ccc(NC(=O)C(C)C)cc2)c2cccs2)c1	4.58 µM	IC50 (PBLUC_HILL_SLOPE 14.7, PBLUC_R_SQUARED 0.598, read-out: LUCIFERASE INFECTION ASSAY - IC50): 3.95 µM
CNc1nc2cnc(Nc3ccccc3)cc2n1Cc1ccco1	> 10 µM	IC50 (HEPG2TOX_HILL_SLOPE 3.53, HEPG2TOX_R_SQUARED 0.949, PBLUC_HILL_SLOPE 2.74, PBLUC_R_SQUARED 0.404, read-out: LUCIFERASE INFECTION ASSAY - IC50): 4.93 µM
CC(NC(=O)COC(=O)CSc1ccc(Br)c2cccc(Cl)c12)c1ccccc1 (stereo not drawn)	> 10 µM	IC50 (FFLUC_HILL_SLOPE 11.2, FFLUC_R_SQUARED 0.0748, PBLUC_HILL_SLOPE 1.42, PBLUC_R_SQUARED 0.0165, read-out: LUCIFERASE INFECTION ASSAY - IC50): > 10 µM
Cc1ccc2nc(NC(=O)c3c(F)cccc3F)c(C(=O)NC3CCCC3)n2c1	8.17 µM	IC50 (HEPG2TOX_HILL_SLOPE 0.446, HEPG2TOX_R_SQUARED 0.792, PBLUC_HILL_SLOPE 1.53, PBLUC_R_SQUARED 0.752, read-out: LUCIFERASE INFECTION ASSAY - IC50): 1.95 µM
COc1cccc(C(=O)Nc2nc3ccc(Br)cn3n2)c1	> 9.51 µM	IC50 (HEPG2TOX_HILL_SLOPE 1.29, HEPG2TOX_R_SQUARED 0.954, read-out: LUCIFERASE INFECTION ASSAY - IC50): > 9.51 µM
CCOc1cc(/C=C/c2nc3cc(C)c(C)cc3s2)ccc1O	> 10 µM	IC50 (HEPG2TOX_HILL_SLOPE 6.63, HEPG2TOX_R_SQUARED 0.787, PBLUC_HILL_SLOPE 3.12, PBLUC_R_SQUARED 0.499, read-out: LUCIFERASE INFECTION ASSAY - IC50): 6.52 µM
c1ccc(OCc2nc3ccccc3n2-c2cc(-c3ccccc3)n[nH]2)cc1	> 10 µM	IC50 (PBLUC_HILL_SLOPE 0.678, 16.2, PBLUC_R_SQUARED 0.350, 0.0461, read-out: LUCIFERASE INFECTION ASSAY - IC50): 9.43 µM
COc1ccc(C2C(C(=O)OCc3cccc4ccccc34)CCC(=O)N2c2ccc(C)cc2)cc1OC (stereo not drawn)	> 10 µM	IC50 (HEPG2TOX_HILL_SLOPE 2.17, HEPG2TOX_R_SQUARED 0.745, PBLUC_HILL_SLOPE 19.2, PBLUC_R_SQUARED 0.577, read-out: LUCIFERASE INFECTION ASSAY - IC50): 9.58 µM
OC(c1ccc(Nc2nc3ccccc3s2)cc1)(C(F)(F)F)C(F)(F)F	9.74 µM	IC50 (PBLUC_HILL_SLOPE 1.04, 1.87, PBLUC_R_SQUARED 0.121, 0.671, read-out: LUCIFERASE INFECTION ASSAY - IC50): 5.01 µM
CC1N(C)c2cc(NC(=O)/C=C/c3ccc(F)cc3)ccc2C1(C)C (stereo not drawn)	> 10 µM	IC50 (PBLUC_HILL_SLOPE 2.49, PBLUC_R_SQUARED 0.1, read-out: LUCIFERASE INFECTION ASSAY - IC50): 5.32 µM
CN(C)CCNC(=O)c1cccc(-c2cnc3ccc(-c4cccs4)nn23)c1	3.6 µM	–
COc1ccc(Cl)cc1NC(=O)CN(C)C(=O)c1cc(-c2ccccc2)nc2c1cnn2C(C)C	> 10 µM	IC50 [1]: > 10 µM
Cc1ccc(NC(=O)c2ccc(Cl)c(NC(=O)c3cccs3)c2)cc1	> 8.9 µM	IC50 [1]: > 8.9 µM
COc1cc(NC(=O)COC(=O)c2ccccc2Nc2ccc(SC(F)F)cc2)c(C)cc1[N+](=O)[O-]	> 10 µM	IC50 (HEPG2TOX_HILL_SLOPE 0.171, HEPG2TOX_R_SQUARED 0.654, read-out: LUCIFERASE INFECTION ASSAY - IC50): > 10 µM
CCN(CC)CCCNS(=O)(=O)c1c(C)n[nH]c1C	> 10 µM	IC50 (PBLUC_HILL_SLOPE 10.1, PBLUC_R_SQUARED 0.0336, read-out: LUCIFERASE INFECTION ASSAY - IC50): > 10 µM
